pKd: −log10 of the molar value. Like-named read-outs stand apart in the source and are kept apart here. One block for each compound: values may come before it. Starred links: 1 amine or outer side, 2 acyl side, 3 side chain; linkers in the order of their positions; H or OH if unused. Non-standard residues stand in square brackets, D forms with d. Residues, ends and D or L forms follow the SMILES beside them. X1 = O=C([C@@H](N[*:1])c1ccc(N=Nc2ccccc2)cc1)[*:2]
What was measured:
[1] = cited from earlier work
[2] = design: method as in 2 sources, ref 29 = [29]; PMID 16287231; doi:10.1021/bc049724g; Nakayama K.; Endo M.; Majima T. A Hydrophilic Azobenzene-Bearing Amino Acid for Photochemical Control of a Restriction Enzyme BamHI . Bioconjugate Chem. 2005 , 16 , 1360 – 1366 . 10.1021/bc049724g . ||| ref 33 = [33]; PMID 31495713; doi:10.1016/j.chembiol.2019.08.006; Kneuttinger A. C.; Straub K.; Bittner P.; Simeth N. A.; Bruckmann A.; Busch F.; Rajendran C.; Hupfeld E.; Wysocki V. H.; Horinek D.; et al. Light Regulation of Enzyme Allostery through Photo; conditions: cited from earlier work
[3] = assay type: physicochemical; conditions: K3-APgly in PBS versus 10 in MeCN
Protocol: For the potential application of K3-APgly in an active system, for example, for membrane fusion, the stability of the photoswitch to repeated light exposures (photocycling) is required. […] Finally, the peptide was irradiated with the 340 nm PSS and allowed to thermally relax, showing 65% recovery in 69 h.
Figure 4 Photocycling of K3-APgly between the dark-adapted, 340 and 435 nm PSS (left), thermal relaxation of the peptide after […] (middle) and distribution of the absorbance in the different states during cycling (right).

[4] = test system: E3GY; experiment: CD thermal unfolding curves fitted to a dimeric coiled-coil binding model; conditions: coiled coil with E3GY; for Kf (folding constant) / pKd: binding model at 20 °C; for pKd: read-out: Ku (unfolding constant)
Protocol: CD melting curves measured at different concentrations were fitted to a coiled-coil binding model (Figures S2 and S3).[39]
CD spectra were recorded on a Jasco J-815 CD spectrometer fitted with a Peltier temperature controller. Spectra were recorded in a 2 mm quartz cuvette at 20 °C using either PBS or low-salt buffer (2 mM NaCl, 10 mM phosphate) at pH 7.4. Spectra were recorded between 190 and 280 nm with 1 nm intervals at a scan rate of 100 nm/min with five subsequent spectra averaged to minimize noise. […] Thermal melting curves were generated by recording θ222nm between 5 and 90 °C at a speed of 1 °C/min. If irradiated samples were used, samples were reilluminated every 30 min. Melting curves were measured at four different concentrations and fitted using the Fitdis software package.[39]

[5] = Thermal relaxation of Fmoc-APgly from cis to trans followed by HPLC; assay type: physicochemical; conditions: after irradiation with 340 nm light, in MeCN at 20 °C
Excerpt: (§1) Figure 3 HPLC analysis of the photoswitching behavior of Fmoc-APgly, and the effect of azobenzene isomerization in peptide K3-APgly. (A) Chromatography traces of Fmoc-APgly in the dark state and after irradiation with different wavelengths of light, complete traces can be found in Figure S5. (B) Thermal relaxation of Fmoc-APgly from cis to trans as followed by HPLC. (C) Percentage of the trans and cis isomers in solution at the different PSSs; error bars indicate difference in deviation between repeat samples. (D) UV–vis spectra showing the spectra of K3-APgly in the dark and after irradiation with 340 or 435 nm light. (E) CD spectra showing the effect of photoisomerization on the structure of K3-Apgly by itself and as a coiled-coil with E3GY. […] Illumination and relaxation studies of the amino acid were performed in MeCN at 20 °C. Peptide spectra were recorded at 20 °C in PBS with [peptide] = 50 μM. […]
(§2) Analytical HPLC was performed using a Shimadzu Prominence-i LC-2030C 3D system fitted with a 4.6 × 50 mm Phenomenex Kinetex Evo C18 column. The isomeric ratio of 10 was quantified using a linear gradient of 10–90% MeCN in water containing 0.1% TFA as buffer. For each measurement, 2 μL of a 200 mM solution of 10 was injected, and measurements were repeated three times for accuracy.

[6] = HPLC quantification of trans/cis isomer ratio at photostationary states; assay type: physicochemical; conditions: measurements repeated three times
Protocol: As azobenzene photoswitches based on phenylglycine are not known in the literature, the photoswitching behavior of Fmoc-APgly (10) was analyzed first in order to assess its suitability as a photoswitch (Figure 3A–C). […] The largest ratio of […]-to-cis isomers via photoisomerization was achieved through irradiation with 385 nm light (83.2 ± 0.2% […]), with higher wavelengths showing very similar distributions.
as §1, §2

[7] = 340 nm irradiated state (predominantly cis)
[8] = dark state (predominantly trans)

SMILES: N[C@@H](Cc1ccc(N=Nc2ccccc2)cc1)C(=O)O [APhe1, Phenylazo-phenylalanine]
reported half-life of thermal relaxation [1]: 26.67 h
PSS, cis isomer ([2]; using a LED light source): 89%
PSS, cis isomer ([2]; using a mercury lamp): 79%

SMILES: N[C@@H](Cc1ccc(N=Nc2ccc(C(=O)O)cc2)cc1)C(=O)O [APhe2]
reported half-life of thermal relaxation [1]: 35 h
PSS, cis isomer ([2]; using a mercury lamp): 81%

SMILES: CC[C@H](C)[C@H](NC(=O)[C@H](CCCCN)NC(C)=O)C(=O)N[C@@H](C)C(=O)N[C@@H](C)C(=O)N[C@@H](CC(C)C)C(=O)N[C@@H](CCCCN)C(=O)N[C@@H](CCC(=O)O)C(=O)N[C@@H](CCCCN)C(=O)N[C@H](C(=O)N[C@@H](C)C(=O)N[C@@H](C)C(=O)N[C@@H](CC(C)C)C(=O)N[C@@H](CCCCN)C(=O)N[C@@H](CCC(=O)O)C(=O)N[C@@H](CCCCN)C(=O)N[C@H](C(=O)N[C@@H](C)C(=O)N[C@@H](C)C(=O)N[C@@H](CC(C)C)C(=O)N[C@@H](CCCCN)C(=O)N[C@@H](CCC(=O)O)C(N)=O)[C@@H](C)CC)c1ccc(N=Nc2ccccc2)cc1 [K3-APgly] (Ac-KIAALKEK[X1]AALKEKIAALKE-NH2)
thermal relaxation, times slower than that observed for 10 in MeCN [3]: 1.6
Kf (folding constant) [4, 7]: 2.97 × 10^5 M^–1
pKd [4, 7]: 5.47
Kf (folding constant) [4, 8]: 1.38 × 10^6 M^–1
pKd [4, 8]: 6.14
dark/340 nm PSS (fold difference in folding constant / binding affinity) ([4]; ratio dark state to 340 nm PSS, 20 °C): 4.65

half-life of thermal relaxation cis to trans [5]: 28.17 h
half-life of thermal relaxation cis to trans ([5]; same value in hours): ≈ 28 h
trans isomer ([6]; dissolved in MeCN, kept under dark conditions): 94.2 ± 0.2%
cis isomer ([6]; irradiated with 340 nm light, MeCN, 20 °C): 91.3 ± 0.6%
trans isomer ([6]; irradiation with 385 nm light, MeCN, 20 °C): 83.2 ± 0.2%
SMILES: O=C(N[C@H](C(=O)O)c1ccc(N=Nc2ccccc2)cc1)OCC1c2ccccc2-c2ccccc21 [compound 10, N-Fmoc-4-(phenylazo)-L-phenylglycine]

From publication PMC9936496, “Azobenzene-Based Amino Acids for the Photocontrol of Coiled-Coil Peptides” (Bioconjugate Chemistry, 2023)
